# According to patent US11590129B2, “Combination therapy with an antitumor alkaloid” (PHARMA MAR, S.A., priority 2010, dated 2023):
# Where two headings read alike, the source gives them in different places.
# Assays:
# [1] = tested on: A549 human lung carcinoma cell line; assay: MTT cytotoxicity assay in A549 cells: IC50 of single agents and combinations with PM01183; assay type: cell-based; conditions: Homo sapiens, A549, 72 h
# Experimental: (§1) Additional serial dilutions were prepared in serum-free culture medium to achieve a final 4× concentration. Aliquots of 50 μL of each diluted compound were added per well.
# A549 was the human lung carcinoma cell line selected for this assay.
# (§2) a. […] Briefly, cells were harvested and seeded in 96 well microtiter plates at a density of 5,000 cells in 150 μL of culture medium and incubated for 24 hours in drug-free medium before treatment with vehicle alone or test compounds for 72 h.
# (§3) The cytotoxic effect was measured by the MTT reduction assay, in which 3-(4,5-Dimethylthiazol-2-yl)-2,5-diphenyltetrazolium bromide, a tetrazole, which is reduced to purple formazan in the mitochondria of living cells, was used. MTT (50 μL of 1 mg/mL stock solution) was added to the wells and incubated for 8 hours at 37° C. until formazan crystals were formed. After gently removing the culture medium, DMSO was added to dissolve the insoluble purple formazan product into a colored solution. […] Results were expressed as percentage of control cell growth.
# (§4) b. In a second set of assays, A549 human tumor cells were incubated with PM01183 in combination with each of the agents mentioned above.
# (§5) As a visual aid, response values were plotted on a scatter plot with dose ratios given on the x-axis and % response values on the y-axis. […] In cases where response values at the two endpoints were approximately equivalent, points lying above or below this predicted line of additivity could be interpreted as representing antagonistic or synergistic drug interaction, respectively.
# [2] = tested on: SK-MEL-2 human melanoma cell line; assay: cells
# Experimental: as §2, §3, §4, §5, §1
# SK-MEL-2 was the human melanoma cell line selected for this assay.
# [3] = tested on: PC-3 human prostate cancer cell line; assay: cells
# Experimental: as §2, §3, §4, §5, §1
# PC-3 was the human prostate adenocarcinome cell line selected for this assay.
# [4] = tested on: HGC-27 human gastric carcinoma cell line; assay: cells
# Experimental: as §2, §3, §4, §5, §1
# HGC-27 was the human gastric carcinoma cell line selected for this assay.
# [5] = tested on: IGROV-1 human ovarian adenocarcinoma cell line; assay: cells
# Experimental: as §2, §3, §4, §5, §1
# IGROV-1 was the human ovarian adenocarcinoma cell line selected for this assay.
# [6] = tested on: HepG2 human hepatocellular liver carcinoma cell line; assay: MTT cytotoxicity assay in HepG2 cells: IC50 of single agents and combinations with PM01183; assay type: cell-based
# Experimental: as §2, §3, §4, §5, §1
# HepG2 was the human hepatocellular liver carcinoma cell line selected for this assay.
# [7] = tested on: MDA-MB-231 human breast adenocarcinoma cell line; assay: cells
# Experimental: as §2, §3, §4, §5, §1
# [8] = tested on: RXF-393 human kidney carcinoma cell line; assay: cells
# Experimental: as §2, §3, §4, §5, §1
# [9] = tested on: HT-29 human colon adenocarcinoma cell line; assay: cells
# Experimental: as §2, §3, §4, §5, §1
# HT-29 was the human colon adenocarcinoma cell line selected for this assay.
# [10] = tested on: U87-MG human glioblastoma cell line; assay: cells
# Experimental: as §2, §3, §4, §5, §1
# U87-MG was the human glioblastoma cell line selected for this assay.
# [11] = tested on: HGC-27 tumors; assay: Human gastric tumor xenografts (HGC-27) in athymic nude mice, tumor volume % T/C; assay type: in vivo
# Experimental: (§6) Female athymic nude mice (Harlan Laboratories Models, S.L. (Barcelona, Spain) were utilized for all experiments. Animals were housed in individually ventilated cages, up to ten per cage in a 12-hour light-dark cycle at 21-23° C. and 40-60% humidity. The mice were allowed free access to irradiated standard rodent diet and sterilized water. Animals were acclimated for at least 5 days prior to tumor implantation with a tumor cell suspension.
# HGC-27 cells were grown at 37° C. with 5% CO2 in Iscove's modified Dulbeco's medium (IDMD).
# PM01183 was provided in the form of vials of lyophilized PM01183 cake which was reconstituted with water for infusion to a concentration of 0.2 mg/mL. The PM01183 stock solution was further diluted in 5% glucose solution for injection to the dosing formulation concentrations. Cisplatin and 5-fluorouracil were provided as solutions prepared by diluting the product with 0.9% saline solution for injection to the target final concentration.
# (§7) Dose level groups were administered either as single agents or in combination.
# (§8) Comparison of the median tumor volume in the treatment groups (T) to the median tumor volume in the control group (T/C×100%) was used for evaluation of the antitumor efficacy.
# [12] = tested on: PANC-1 human pancreatic carcinoma cell line; assay: cells
# Experimental: as §2, §3, §4, §5, §1
# PANC-1 was the human pancreatic carcinoma cell line selected for this assay.
# [13] = tested on: A2780 tumors; assay: Human ovarian tumor xenografts (A2780) in athymic nude mice, tumor volume % T/C; assay type: in vivo
# Experimental: as §6
# The formula to calculate volume for a prolate ellipsoid was used to estimate tumor volume (mm^3) from 2-dimensional tumor measurements: Tumor volume (mm^3)=[L×W^2]÷2, where L is the length and it is the longest diameter in mm, and W is the width and it is the shortest diameter in mm of a tumor. Assuming unit density, volume was converted to weight (i.e., 1 mm^3=1 mg). Tumor volume and animal body weights were measured 2-3 times per week starting form the first day of treatment (Day 0).
# PM01183 was provided in the form of vials of lyophilized PM01183 cake which was reconstituted with water for infusion to a concentration of 0.2 mg/mL. The PM01183 stock solution was further diluted in 5% glucose solution for injection to the dosing formulation concentrations. […] Vinorelbine was provided as a solution prepared by diluting the product with 0.9% saline solution.
# as §7, §8
# Day 9 for PM01183 and vinorelbine study) using the median-effect principle (Chou T. C. Pharmacol. Rev.
# [14] = 5-fluorouracil 12.5 mg/kg iv days 0,7
# [15] = 5-fluorouracil 37.5 mg/kg iv days 0,7
# [16] = 5-fluorouracil 50.0 mg/kg iv days 0,7
# [17] = cisplatin 1.5 mg/kg iv days 0,7
# [18] = cisplatin 3.0 mg/kg iv days 0,7
# [19] = cisplatin 4.5 mg/kg iv days 0,7
# [20] = cisplatin 6.0 mg/kg iv days 0,7
# [21] = doxorubicin 2.0 mg/kg iv days 0,7
# [22] = doxorubicin 4.0 mg/kg iv days 0,7
# [23] = doxorubicin 6.0 mg/kg iv days 0,7
# [24] = doxorubicin 8.0 mg/kg iv days 0,7
smiles,measurement,setting,value
"O=c1[nH]cc(F)c(=O)[nH]1 [5-FU, 5-fluorouracil]",IC50,[1],92.3 µM
same,IC50,"[2]; Homo sapiens, SK-MEL-2, 72 h",700 µM
same,IC50,"[3]; Homo sapiens, PC-3, 72 h",1000 µM
same,IC50,"[4]; Homo sapiens, HGC-27, 72 h",10 µM
same,IC50,"[5]; Homo sapiens, IGROV-1, 72 h",90 µM
same,IC50,"[6]; Homo sapiens, HepG2, 72 h",4.5 µM
same,IC50,"[7]; Homo sapiens, MDA-MB-231, 72 h",90 µM
same,IC50,"[8]; Homo sapiens, RXF 393, 72 h",300 µM
same,IC50,"[9]; Homo sapiens, HT-29, 72 h",9 µM
same,IC50,"[10]; Homo sapiens, U-87 MG, 72 h",1000 µM
same,% T/C on day 0,[11]; [14],100.7%
same,% T/C on day 2,[11]; [14],81.7%
same,% T/C on day 5,[11]; [14],101.3%
same,% T/C on day 7,[11]; [14],102.8%
same,% T/C on day 9,[11]; [14],98.6%
same,% T/C on day 12,[11]; [14],90.5%
same,% T/C on day 14,[11]; [14],83.8%
same,% T/C on day 0,[11]; [15],99.4%
same,% T/C on day 2,[11]; [15],86.9%
same,% T/C on day 5,[11]; [15],86.9%
same,% T/C on day 7,[11]; [15],78.6%
same,% T/C on day 9,[11]; [15],73.2%
same,% T/C on day 12,[11]; [15],76.7%
same,% T/C on day 14,[11]; [15],83.1%
same,% T/C on day 0,[11]; [16],100.3%
same,% T/C on day 2,[11]; [16],81.2%
same,% T/C on day 5,[11]; [16],82.3%
same,% T/C on day 7,[11]; [16],81.1%
same,% T/C on day 9,[11]; [16],75.6%
same,% T/C on day 12,[11]; [16],69.6%
same,% T/C on day 14,[11]; [16],60.7%
"N.N.[Cl][Pt][Cl] [Cisplatin, cisplatin]",IC50,"[2]; SK-MEL-2, 72 hours drug exposure, MTT",160 µM
same,IC50,"[3]; PC-3, 72 hours drug exposure, MTT",110 µM
same,IC50,"[12]; PANC-1, 72 hours drug exposure, MTT",147 µM
same,IC50,"[4]; HGC-27, 72 hours drug exposure, MTT",80 µM
same,IC50,"[5]; IGROV-1, 72 hours drug exposure, MTT",70 µM
same,IC50,"[6]; HepG2, 72 hours drug exposure, MTT, read-out: IC50",50 µM
same,IC50,"[7]; MDA-MB-231, 72 hours drug exposure, MTT",153 µM
same,IC50,"[8]; RXF-393, 72 hours drug exposure, MTT",66.7 µM
same,IC50,"[9]; HT-29, 72 hours drug exposure, MTT",220 µM
same,IC50,"[10]; U87-MG, 72 hours drug exposure, MTT",44 µM
same,% T/C on day 0,[11]; [17],99.3%
same,% T/C on day 3,[11]; [17],78.1%
same,% T/C on day 5,[11]; [17],78.8%
same,% T/C on day 7,[11]; [17],82.6%
same,% T/C on day 10,[11]; [17],83.5%
same,% T/C on day 12,[11]; [17],86.6%
same,% T/C on day 14,[11]; [17],89.9%
same,% T/C on day 0,[11]; [18],99.0%
same,% T/C on day 3,[11]; [18],78.6%
same,% T/C on day 5,[11]; [18],80.0%
same,% T/C on day 7,[11]; [18],78.7%
same,% T/C on day 10,[11]; [18],81.3%
same,% T/C on day 12,[11]; [18],82.8%
same,% T/C on day 14,[11]; [18],85.1%
same,% T/C on day 0,[11]; [19],98.5%
same,% T/C on day 3,[11]; [19],90.5%
same,% T/C on day 5,[11]; [19],94.5%
same,% T/C on day 7,[11]; [19],90.2%
same,% T/C on day 10,[11]; [19],75.7%
same,% T/C on day 12,[11]; [19],73.7%
same,% T/C on day 14,[11]; [19],81.1%
same,% T/C on day 0,[11]; [20],97.7%
same,% T/C on day 3,[11]; [20],76.1%
same,% T/C on day 5,[11]; [20],79.0%
same,% T/C on day 7,[11]; [20],75.1%
same,% T/C on day 10,[11]; [20],64.4%
same,% T/C on day 12,[11]; [20],61.3%
same,% T/C on day 14,[11]; [20],72.7%
"COc1cccc2c1C(=O)c1c(O)c3c(c(O)c1C2=O)C[C@@](O)(C(=O)CO)C[C@@H]3O[C@H]1C[C@H](N)[C@H](O)[C@H](C)O1 [Doxorubicin, doxorubicin]",IC50,"[2]; Homo sapiens, SK-MEL-2, 72 h",0.3 µM
same,IC50,"[3]; Homo sapiens, PC-3, 72 h",1.48 µM
same,IC50,"[12]; Homo sapiens, PANC-1, 72 h",3.45 µM
same,IC50,"[4]; Homo sapiens, HGC-27, 72 h",0.054 µM
same,IC50,"[5]; Homo sapiens, IGROV-1, 72 h",0.259 µM
same,IC50,"[6]; Homo sapiens, HepG2, 72 h",0.2 µM
same,IC50,"[7]; Homo sapiens, MDA-MB-231, 72 h",0.6 µM
same,IC50,"[8]; Homo sapiens, RXF 393, 72 h",0.8 µM
same,IC50,"[9]; Homo sapiens, HT-29, 72 h",0.9 µM
same,IC50,"[10]; Homo sapiens, U-87 MG, 72 h",0.3 µM
same,% T/C on day 0,[13]; [21],99.8%
same,% T/C on day 3,[13]; [21],91.5%
same,% T/C on day 5,[13]; [21],93.1%
same,% T/C on day 7,[13]; [21],94.2%
same,% T/C on day 10,[13]; [21],86.2%
same,% T/C on day 0,[13]; [22],102.0%
same,% T/C on day 3,[13]; [22],82.9%
same,% T/C on day 5,[13]; [22],75.1%
same,% T/C on day 7,[13]; [22],75.0%
same,% T/C on day 0,[13]; [23],99.4%
same,% T/C on day 3,[13]; [23],71.0%
same,% T/C on day 5,[13]; [23],60.3%
same,% T/C on day 7,[13]; [23],56.8%
same,% T/C on day 10,[13]; [23],54.3%
same,% T/C on day 0,[13]; [24],99.5%
same,% T/C on day 3,[13]; [24],60.8%
same,% T/C on day 5,[13]; [24],49.8%
same,% T/C on day 7,[13]; [24],48.1%
same,% T/C on day 10,[13]; [24],39.4%
"CCc1c2c(nc3ccc(OC(=O)N4CCC(N5CCCCC5)CC4)cc13)-c1cc3c(c(=O)n1C2)COC(=O)[C@]3(O)CC [Irinotecan, irinotecan]",IC50,"[2]; Homo sapiens, SK-MEL-2, 72 h",18 µM
same,IC50,"[3]; Homo sapiens, PC-3, 72 h",70 µM
same,IC50,"[12]; Homo sapiens, PANC-1, 72 h",90 µM
same,IC50,"[4]; Homo sapiens, HGC-27, 72 h",4 µM
same,IC50,"[5]; Homo sapiens, IGROV-1, 72 h",10 µM
same,IC50,"[6]; Homo sapiens, HepG2, 72 h",1 µM
same,IC50,"[7]; Homo sapiens, MDA-MB-231, 72 h",8.5 µM
same,IC50,"[8]; Homo sapiens, RXF 393, 72 h",14 µM
same,IC50,"[9]; Homo sapiens, HT-29, 72 h",9 µM
same,IC50,"[10]; Homo sapiens, U-87 MG, 72 h",7.54 µM
